Experimental findings from the supplement of paper PMC10307832 are described below.

Experiment in all cases: relative viability (nuclei count vs DMSO), 5 days (fraction); higher = more cells survive
Compound in the test “Bexarotene + Decitabine”: C=C(c1ccc(C(=O)O)cc1)c1cc2c(cc1C)C(C)(C)CCC2(C)C [Bexarotene] + Nc1ncn([C@H]2C[C@H](O)[C@@H](CO)O2)c(=O)n1 [Decitabine] (partner 2 µM)
Summed up: (§1)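 One day after seeding in 1536-well plates, lung cancer cell lines were dosed by pin tool. Dosing was either single-drug or a fixed anchor-drug dose plus five library-drug doses (not always all listed) in √10 steps. After 5 days, nuclei were stained in one fix-and-stain step and counted on 4× images, and relative viability is the nuclei count of treated wells over that of vehicle wells, given as the median of duplicate plates.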

Compound in the test “Bexarotene + Pictilisib”: C=C(c1ccc(C(=O)O)cc1)c1cc2c(cc1C)C(C)(C)CCC2(C)C [Bexarotene] + CS(=O)(=O)N1CCN(Cc2cc3nc(-c4cccc5[nH]ncc45)nc(N4CCOCC4)c3s2)CC1 [Pictilisib] (partner 1 µM)
Summed up: as §1

Compound in the test “Bexarotene + Palbociclib”: C=C(c1ccc(C(=O)O)cc1)c1cc2c(cc1C)C(C)(C)CCC2(C)C [Bexarotene] + CC(=O)c1c(C)c2cnc(Nc3ccc(N4CCNCC4)cn3)nc2n(C2CCCC2)c1=O [Palbociclib] (partner 0.5 µM)
The method, boiled down: as §1

Compound in the test “Bexarotene + Phenformin”: C=C(c1ccc(C(=O)O)cc1)c1cc2c(cc1C)C(C)(C)CCC2(C)C [Bexarotene] + N=C(N)NC(=N)NCCc1ccccc1 [Phenformin] (partner 250 µM)
Summed up:
as §1

On to NCI-H1792, for which the relative viability came out at 0.548 with Bexarotene + Decitabine (first compound 0.08 µM); 0.527 with Bexarotene + Decitabine (first compound 0.253 µM); 0.493 with Bexarotene + Decitabine (first compound 0.8 µM); 0.531 with Bexarotene + Decitabine (first compound 2.53 µM); 0.425 in the test with Bexarotene + Decitabine (first compound 8 µM); 0.244 with Bexarotene + Pictilisib (first compound 0.08 µM). In addition, the relative viability with Bexarotene + Pictilisib (first compound 0.253 µM) was 0.204; with Bexarotene + Pictilisib (first compound 0.8 µM), 0.213; in the test with Bexarotene + Pictilisib (first compound 2.53 µM), 0.252; with Bexarotene + Pictilisib (first compound 8 µM), 0.205; with Bexarotene + Palbociclib (first compound 0.08 µM), 0.706; in the test with Bexarotene + Palbociclib (first compound 0.253 µM) it was 0.611. Also, the relative viability with Bexarotene + Palbociclib (first compound 0.8 µM) was determined as 0.616; with Bexarotene + Palbociclib (first compound 2.53 µM), 0.588; in the test with Bexarotene + Palbociclib (first compound 8 µM), 0.607; in the test with Bexarotene + Phenformin (first compound 0.08 µM), 0.276; in the test with Bexarotene + Phenformin (first compound 0.253 µM), 0.214; with Bexarotene + Phenformin (first compound 0.8 µM), 0.166. Besides, the relative viability came out at 0.135 with Bexarotene + Phenformin (first compound 2.53 µM) and 0.119 in the test with Bexarotene + Phenformin (first compound 8 µM).

Turning to NCI-H2023, the relative viability in the test with Bexarotene + Decitabine (first compound 0.08 µM) was found to be 0.224; with Bexarotene + Decitabine (first compound 0.253 µM), 0.218; with Bexarotene + Decitabine (first compound 0.8 µM), 0.214; in the test with Bexarotene + Decitabine (first compound 2.53 µM), 0.197; with Bexarotene + Decitabine (first compound 8 µM), 0.205; with Bexarotene + Pictilisib (first compound 0.08 µM), 0.326. Further, the relative viability in the test with Bexarotene + Pictilisib (first compound 0.253 µM) was determined as 0.245; with Bexarotene + Pictilisib (first compound 0.8 µM), 0.241; in the test with Bexarotene + Pictilisib (first compound 2.53 µM), 0.252; with Bexarotene + Pictilisib (first compound 8 µM), 0.222; with Bexarotene + Palbociclib (first compound 0.08 µM), 0.312; in the test with Bexarotene + Palbociclib (first compound 0.253 µM), 0.423. Besides, the relative viability in the test with Bexarotene + Palbociclib (first compound 0.8 µM) was found to be 0.4; with Bexarotene + Palbociclib (first compound 2.53 µM), 0.359; with Bexarotene + Palbociclib (first compound 8 µM), 0.269; in the test with Bexarotene + Phenformin (first compound 0.08 µM), 0.437; in the test with Bexarotene + Phenformin (first compound 0.253 µM), 0.483; in the test with Bexarotene + Phenformin (first compound 0.8 µM), 0.443. Besides, the relative viability with Bexarotene + Phenformin (first compound 2.53 µM) was determined as 0.422; with Bexarotene + Phenformin (first compound 8 µM), 0.344.

For COR-L 105, the relative viability in the test with Bexarotene + Decitabine (first compound 0.08 µM) was determined as 0.731; with Bexarotene + Decitabine (first compound 0.253 µM), 0.704; with Bexarotene + Decitabine (first compound 0.8 µM), 0.664; in the test with Bexarotene + Decitabine (first compound 2.53 µM) it was 0.616; with Bexarotene + Decitabine (first compound 8 µM) it was 0.578; in the test with Bexarotene + Pictilisib (first compound 0.08 µM), 0.473. The relative viability in the test with Bexarotene + Pictilisib (first compound 0.253 µM) is 0.397; in the test with Bexarotene + Pictilisib (first compound 0.8 µM), 0.331; in the test with Bexarotene + Pictilisib (first compound 2.53 µM), 0.385; with Bexarotene + Pictilisib (first compound 8 µM) it was 0.39; in the test with Bexarotene + Palbociclib (first compound 0.08 µM), 0.382; with Bexarotene + Palbociclib (first compound 0.253 µM), 0.368. Besides, the relative viability with Bexarotene + Palbociclib (first compound 0.8 µM) was 0.409; with Bexarotene + Palbociclib (first compound 2.53 µM), 0.421; with Bexarotene + Palbociclib (first compound 8 µM) it was 0.392; in the test with Bexarotene + Phenformin (first compound 0.08 µM) it was 0.614; in the test with Bexarotene + Phenformin (first compound 0.253 µM), 0.472; with Bexarotene + Phenformin (first compound 0.8 µM) it was 0.519. The values for the relative viability in the test with Bexarotene + Phenformin (first compound 2.53 µM) and in the test with Bexarotene + Phenformin (first compound 8 µM) were 0.517 and 0.569, respectively.

In the case of NCI-H1734, the relative viability with Bexarotene + Decitabine (first compound 0.08 µM) came out at 0.522; with Bexarotene + Decitabine (first compound 0.253 µM), 0.461; with Bexarotene + Decitabine (first compound 0.8 µM), 0.498; with Bexarotene + Decitabine (first compound 2.53 µM), 0.483; with Bexarotene + Decitabine (first compound 8 µM) it was 0.441; with Bexarotene + Pictilisib (first compound 0.08 µM) it was 0.559. Also, the relative viability stood at 0.462 with Bexarotene + Pictilisib (first compound 0.253 µM); 0.4 with Bexarotene + Pictilisib (first compound 0.8 µM); 0.442 with Bexarotene + Pictilisib (first compound 2.53 µM); 0.43 with Bexarotene + Pictilisib (first compound 8 µM); 0.333 with Bexarotene + Palbociclib (first compound 0.08 µM); 0.33 with Bexarotene + Palbociclib (first compound 0.253 µM). In addition, the relative viability with Bexarotene + Palbociclib (first compound 0.8 µM) is 0.292; in the test with Bexarotene + Palbociclib (first compound 2.53 µM), 0.282; with Bexarotene + Palbociclib (first compound 8 µM), 0.318; in the test with Bexarotene + Phenformin (first compound 0.08 µM), 0.414; with Bexarotene + Phenformin (first compound 0.253 µM), 0.339; with Bexarotene + Phenformin (first compound 0.8 µM), 0.421. Moreover, the values for the relative viability in the test with Bexarotene + Phenformin (first compound 2.53 µM) and in the test with Bexarotene + Phenformin (first compound 8 µM) were 0.335 and 0.382, respectively.

Take NCI-H3122: the relative viability in the test with Bexarotene + Decitabine (first compound 0.08 µM) is 0.521; with Bexarotene + Decitabine (first compound 0.253 µM) it was 0.385; with Bexarotene + Decitabine (first compound 0.8 µM) it was 0.416; with Bexarotene + Decitabine (first compound 2.53 µM), 0.415; in the test with Bexarotene + Decitabine (first compound 8 µM), 0.365; with Bexarotene + Pictilisib (first compound 0.08 µM), 0.82. The relative viability with Bexarotene + Pictilisib (first compound 0.253 µM) stood at 0.821; with Bexarotene + Pictilisib (first compound 0.8 µM), 0.647; with Bexarotene + Pictilisib (first compound 2.53 µM), 0.855; in the test with Bexarotene + Pictilisib (first compound 8 µM), 0.802; in the test with Bexarotene + Palbociclib (first compound 0.08 µM) it was 0.225; in the test with Bexarotene + Palbociclib (first compound 0.253 µM), 0.216. The relative viability with Bexarotene + Palbociclib (first compound 0.8 µM) stood at 0.187; with Bexarotene + Palbociclib (first compound 2.53 µM), 0.254; with Bexarotene + Palbociclib (first compound 8 µM), 0.23; with Bexarotene + Phenformin (first compound 0.08 µM), 0.379; with Bexarotene + Phenformin (first compound 0.253 µM), 0.367; with Bexarotene + Phenformin (first compound 0.8 µM) it was 0.359. Further, the relative viability in the test with Bexarotene + Phenformin (first compound 2.53 µM) was determined as 0.385; in the test with Bexarotene + Phenformin (first compound 8 µM), 0.372.

HCC-78: the relative viability with Bexarotene + Decitabine (first compound 0.08 µM) was 0.735; in the test with Bexarotene + Decitabine (first compound 0.253 µM), 0.705; with Bexarotene + Decitabine (first compound 0.8 µM), 0.673; with Bexarotene + Decitabine (first compound 2.53 µM) it was 0.528; in the test with Bexarotene + Decitabine (first compound 8 µM) it was 0.749; with Bexarotene + Pictilisib (first compound 0.08 µM) it was 0.228. Also, the relative viability with Bexarotene + Pictilisib (first compound 0.253 µM) was 0.196; in the test with Bexarotene + Pictilisib (first compound 0.8 µM), 0.215; with Bexarotene + Pictilisib (first compound 2.53 µM) it was 0.182; with Bexarotene + Pictilisib (first compound 8 µM) it was 0.194; with Bexarotene + Palbociclib (first compound 0.08 µM) it was 0.518; in the test with Bexarotene + Palbociclib (first compound 0.253 µM), 0.416. In addition, the relative viability with Bexarotene + Palbociclib (first compound 0.8 µM) was 0.403; with Bexarotene + Palbociclib (first compound 2.53 µM), 0.473; with Bexarotene + Palbociclib (first compound 8 µM), 0.509; with Bexarotene + Phenformin (first compound 0.08 µM) it was 1.01; with Bexarotene + Phenformin (first compound 0.253 µM), 0.732; with Bexarotene + Phenformin (first compound 0.8 µM), 0.599. The values for the relative viability with Bexarotene + Phenformin (first compound 2.53 µM) and with Bexarotene + Phenformin (first compound 8 µM) were 0.596 and 0.73, respectively.

For NCI-H2085, the relative viability came out at 0.539 with Bexarotene + Decitabine (first compound 0.08 µM); 0.545 with Bexarotene + Decitabine (first compound 0.253 µM); 0.512 with Bexarotene + Decitabine (first compound 0.8 µM); 0.487 in the test with Bexarotene + Decitabine (first compound 2.53 µM); 0.536 with Bexarotene + Decitabine (first compound 8 µM); 0.449 with Bexarotene + Pictilisib (first compound 0.08 µM). Further, the relative viability in the test with Bexarotene + Pictilisib (first compound 0.253 µM) worked out at 0.461; in the test with Bexarotene + Pictilisib (first compound 0.8 µM) it was 0.431; with Bexarotene + Pictilisib (first compound 2.53 µM), 0.386; with Bexarotene + Pictilisib (first compound 8 µM), 0.476; in the test with Bexarotene + Palbociclib (first compound 0.08 µM), 0.411; in the test with Bexarotene + Palbociclib (first compound 0.253 µM) it was 0.434. For the same cell line, the relative viability with Bexarotene + Palbociclib (first compound 0.8 µM) is 0.415; in the test with Bexarotene + Palbociclib (first compound 2.53 µM), 0.374; with Bexarotene + Palbociclib (first compound 8 µM) it was 0.383; with Bexarotene + Phenformin (first compound 0.08 µM), 0.759; with Bexarotene + Phenformin (first compound 0.253 µM) it was 0.646; with Bexarotene + Phenformin (first compound 0.8 µM), 0.531. The relative viability worked out at 0.678 in the test with Bexarotene + Phenformin (first compound 2.53 µM) and 0.718 with Bexarotene + Phenformin (first compound 8 µM).
